US20190322697A1, “2'2'-CYCLIC DINUCLEOTIDES” (Institute of Organic Chemistry and Biochemistry, ASCR, V.V.I, priority 2018, published 2019)

Columns and labels:
WT STING [1] = target: T1, WT STING (Homo sapiens, UniProt Q86WV6, H232R); experiment: Digitonin assay using 293T wtSTING-FL reporter cells; format: cell-based; settings: 293T wtSTING-FL cells, ISRE firefly luciferase reporter, digitonin buffer 30 min, then 5 hours
Text: Two complementary oligonucleotides of the sequence […] […] […] […] […] […] […] The oligonucleotides were mixed in equal molar amounts, hybridized, and cleaved by restriction endonucleases HindIII (cat. #. R0104S, NEB, Ipswich, USA) and BglII (cat. # R0144S, NEB, Ipswich, USA). Ultimately, they were ligated into plasmid pGL4.27 (cat. # E6651, Promega, Madison, USA) linearized with the same enzymes. As result the sequence with four ISRE sites was placed upstream of the minimum promoter of firefly luciferase reporter gene.
After 5 minutes incubation at room temperature (RT), 250 μL of the mixture was added dropwise to the cells in one well. Cells were incubated 36 hours at 37° C. with 5% CO2, and then detached with 0.05% Trypsin and 0.22 g/L EDTA (both cat. # L0941, Biowest, Riverside, USA).
Transfected cells were seeded onto poly-D-lysine coated six well plates at density 50,000 cells per 1 cm^2 in DMEM medium with high glucose containing 10% heat inactivated FBS, 30 μg/mL blasticidin (cat. # ant-bl-05, InvivoGen, San Diego, USA), 0.06 mg/ml Penicillin G and 0.1 mg/ml Streptomycin Sulfate (both cat. #. L0018, Biowest, Riverside, USA). The medium was replenished every 3-4 days until visible colonies of cells resistant to blasticidin were formed.
Blasticidin resistant cells stably expressing WT STING were further transfected with pGL64.27-4×ISRE plasmid following the same procedure as described above. […] Homogeneous culture of stably double transfected cells was prepared by limiting dilution of cells in 96 well plates and wells with cells were selected that originated from a single cell.
The medium was removed next day and three fold serial dilutions of compounds in Digitonin buffer containing 50 mmol·l^−1 HEPES (cat. # H3375, Sigma Aldrich, Czech Republic) pH 7.0, 100 mmol·l^−1 KCl, 3 mmol·l^−1 MgCl2, 0.1 mmol·l^−1 DTT (cat. #D0632, Sigma Aldrich, Czech Republic), 85 mmol·l^−1 Sucrose (cat. # S7903, Sigma Aldrich, Czech Republic), 0.2% BSA (cat. # A2153, Sigma Aldrich, Czech Republic), 1 mmol·l^−1 ATP (cat. # A1852, Sigma Aldrich, Czech Republic), 0.1 mmol·l^−1 GTP (cat. # G8877, Sigma Aldrich, Czech Republic), and 10 μg/mL Digitonin A (cat. # D141, Sigma Aldrich, Czech Republic) were added to the cells. The buffer was removed after 30 minutes incubation at 37° C. with 5% CO2, the cells were washed once with 100 μl of cultivation medium, and 100 μl of medium was added to each well. The plates with cells were incubated for 5 hours at 37° C. with 5% CO2, 50 μl of the medium was removed and 30 μl of ONE-Glo™ Luciferase Assay System reagent (cat. # E6120, Promega, Madison, USA) was added to each well. Luminesce was read on Synergy H1 (Biotek, Winooski, USA).
Target sequence in this assay (Q86WV6 whole entry H232R): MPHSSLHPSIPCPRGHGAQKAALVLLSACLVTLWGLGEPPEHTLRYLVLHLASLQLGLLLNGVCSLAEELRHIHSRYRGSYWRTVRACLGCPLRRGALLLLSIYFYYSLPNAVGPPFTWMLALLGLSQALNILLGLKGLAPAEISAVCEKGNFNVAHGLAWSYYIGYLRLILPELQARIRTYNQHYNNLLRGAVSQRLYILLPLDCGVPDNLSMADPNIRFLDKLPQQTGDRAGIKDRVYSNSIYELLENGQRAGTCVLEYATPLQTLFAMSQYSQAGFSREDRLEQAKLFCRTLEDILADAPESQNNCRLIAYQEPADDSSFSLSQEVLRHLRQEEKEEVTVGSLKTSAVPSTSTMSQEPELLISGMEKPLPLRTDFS

WT STING [2] = target: T1, WT STING; experiment: Differential Scanning Fluorimetry with WT STING; format: binding; set-up: truncated human WT STING or AQ STING (amino acid residues 140-343); 8xHis (N, cleaved yes); SUMO (N, cleaved yes); made in house; host or cells: E. coli Rosetta-gami B (DE3); settings: thermal shift, truncated human WT STING 0.1 mg/ml, 150 μM CDN
Procedure: (§1) Purified PCR products were cleaved with restriction enzymes BamHI (cat. # R0136S, NEB, Ipswich, USA) and NotI (cat. # R0189S, NEB, Ipswich, USA) and cloned into the pSUMO vector linearized with the identical enzymes.
(§2) DNase I (cat. # D5025, Sigma Aldrich, Czech Republic) and RNase A (cat. # R6513, Sigma Aldrich, Czech Republic) were added (final concentration 50 μg/ml) together with MgCl2 (final concentration 5 mmol·l^−1) to the homogenate and bacteria were lysed using French Press G-M™ High-Pressure Cell Press Homogenizer (1500 psi, 3 cycles). […] The resin was poured into a chromatography column, washed with 50 ml buffer A (50 mmol·l^−1 TrisCl (pH 8.0), 800 mmol·l^−1 NaCl, 3 mmol·l^−1 3-mercaptoethanol; 10% glycerol; 20 mmol·l^−1 imidazole) and 8-His-SUMO tagged STING proteins were eluted with 15 ml buffer A containing 300 mmol·l^−1 imidazole. […] Proteins were concentrated with Amicon® Ultra-15 10 K device (cat. # UFC901008, Merck Millipore, Billerica, USA) and flash frozen in liquid N2.
(§3) 20 μL solutions of the reaction mixtures were pipetted in triplicates into 96 well optical reaction plates and thermal denaturation of samples were performed on real time PCR cycler (LightCycler® 480 Instrument II—Roche, Basel, Switzerland). The first derivative of the thermal denaturation curves was performed to calculate denaturing temperatures of STING-CDN complexes and STING apoproteins. The thermal shift for each CDN was calculated by subtracting the average denaturing temperature of STING apoprotein from the average denaturing temperature of STING CDN complex.
Target sequence in this assay (Q86WV6 140-343 H232R): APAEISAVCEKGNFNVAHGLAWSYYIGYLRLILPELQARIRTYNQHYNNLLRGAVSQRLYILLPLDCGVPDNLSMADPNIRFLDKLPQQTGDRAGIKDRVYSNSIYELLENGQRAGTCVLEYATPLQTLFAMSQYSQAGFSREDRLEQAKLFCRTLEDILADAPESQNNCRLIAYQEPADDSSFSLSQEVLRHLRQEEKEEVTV

AQ STING (G230A-R293Q) = target: T2, AQ STING (G230A-R293Q) (Homo sapiens, UniProt Q86WV6, G230A/H232R/R293Q); experiment: Differential Scanning Fluorimetry with AQ STING; format: binding; settings: thermal shift, truncated human AQ STING 0.1 mg/ml, 150 μM CDN
T2 construct: truncated human WT STING or AQ STING (amino acid residues 140-343); 8xHis (N, cleaved yes); SUMO (N, cleaved yes); made in house; host or cells: E. coli Rosetta-gami B (DE3)
Procedure: as §1, §2, §3

T2 sequence (Q86WV6 140-343 G230A/H232R/R293Q): as the sequence (Q86WV6 140-343 H232R) above, with G91A, R154Q counted along it

Nc1ncnc2c1ncn2[C@@H]1O[C@@H]2COP(=O)(O)O[C@H]3[C@@H](O)[C@H](n4cnc5c(N)ncnc54)O[C@@H]3COP(=O)(O)O[C@H]2[C@H]1O [3′3′-c-di-AMP, reference compound]
EC50 (WT STING [1]): 0.3 µM | DSF ΔTm WT STING (WT STING [2]): 2.6 °C | DSF ΔTm AQ STING (AQ STING (G230A-R293Q)): 9.3 °C

Nc1ncnc2c1ncn2[C@@H]1O[C@@H]2COP(=O)(O)CO[C@H]3[C@H](O)[C@@H](COP(=O)(O)O[C@@H]1[C@@H]2O)O[C@H]3n1cnc2c(N)ncnc21 [Example 5, (1R,6R,8R,9S,15R,17R,18R,19R)-8,17-bis(6-amino-9H-purin-9-yl)-3,12,18,19-tetrahydroxy-2,4,7,10,13,16-hexaoxa-3,12-diphosphatricyclo[13.2.1.1^6,9]nonadecane 3,12-dioxide]
EC50 (WT STING [1]): > 50 µM | DSF ΔTm WT STING (WT STING [2]): −0.9 °C | DSF ΔTm AQ STING (AQ STING (G230A-R293Q)): 0.2 °C

Nc1ncnc2c1ncn2[C@@H]1O[C@@H]2COP(=O)(O)O[C@@H]3[C@H](F)[C@@H](COP(=O)(O)CO[C@@H]1[C@@H]2F)O[C@H]3n1cnc2c(N)ncnc21 [Example 8, (1S,6R,8R,9S,15R,17R,18R,19R)-8,17-bis(6-amino-9H-purin-9-yl)-18,19-difluoro-3,12-dihydroxy-2,4,7,10,13,16-hexaoxa-3,12-diphosphatricyclo[13.2.1.1^6,9]nonadecane 3,12-dioxide]
EC50 (WT STING [1]): 1.1 µM | DSF ΔTm WT STING (WT STING [2]): 3.6 °C | DSF ΔTm AQ STING (AQ STING (G230A-R293Q)): 11.5 °C

Nc1nc2c(ncn2[C@@H]2O[C@@H]3COP(=O)(O)O[C@@H]4[C@H](O)[C@@H](COP(=O)(O)CO[C@@H]2[C@@H]3O)O[C@H]4n2cnc3c(N)ncnc32)c(=O)[nH]1 [Example 2, 2-amino-9-((1R,6R,8R,9R,15R,17R,18R,19R)-17-(6-amino-9H-purin-9-yl)-3,12,18,19-tetrahydroxy-3,12-dioxido-2,4,7,10,13,16-hexaoxa-3,12-diphosphatricyclo[13.2.1.1^6,9]nonadecan-8-yl)-1,9-dihydro-6H-purin-6-one]
EC50 (WT STING [1]): 0.15 µM | DSF ΔTm WT STING (WT STING [2]): 9.0 °C | DSF ΔTm AQ STING (AQ STING (G230A-R293Q)): 16.5 °C

Nc1nc2c(ncn2[C@@H]2O[C@@H]3COP(=O)(O)CO[C@@H]4[C@H](O)[C@@H](COP(=O)(O)CO[C@@H]2[C@@H]3O)O[C@H]4n2cnc3c(=O)[nH]c(N)nc32)c(=O)[nH]1 [Example 4, 9,9′-((1R,7R,9R,10R,16R,18R,19R,20R)-4,13,19,20-tetrahydroxy-4,13-dioxido-2,5,8,1 1,14,17-hexaoxa-4,13-diphosphatricyclo[14.2.1.1^7,10]icosane-9,18-diyl)bis(2-amino-1,9-dihydro-6H-purin-6-one)]
EC50 (WT STING [1]): > 50 µM | DSF ΔTm WT STING (WT STING [2]): 0.3 °C | DSF ΔTm AQ STING (AQ STING (G230A-R293Q)): 0.3 °C

Nc1nc2c(ncn2[C@@H]2O[C@@H]3COP(=O)(O)COC4C(O)[C@@H](COP(=O)(O)OC2C3O)O[C@H]4n2cnc3c(N)ncnc32)c(=O)[nH]1 (stereo partly drawn) [Example 3, 2-amino-9-((1R,6R,8R,9R,15R,17R,18R,19R)-8-(6-amino-9H-purin-9-yl)-3,12,18,19-tetrahydroxy-3,12-dioxido-2,4,7,10,13,16-hexaoxa-3,12-diphosphatricyclo[13.2.1.1^6]9nonadecan-17-yl)-1,9-dihydro-6H-purin-6-one]
EC50 (WT STING [1]): 0.05 µM | DSF ΔTm WT STING (WT STING [2]): 12.0 °C | DSF ΔTm AQ STING (AQ STING (G230A-R293Q)): 19.0 °C

Nc1nc2c(ncn2[C@@H]2O[C@@H]3COP(=O)(O)CO[C@@H]4[C@H](F)[C@@H](COP(=O)(O)O[C@@H]2[C@@H]3F)O[C@H]4n2cnc3c(N)ncnc32)c(=O)[nH]1 [Example 9, 2-amino-9-((1S,6R,8R,9S,15R,17R,18R,19R)-8-(6-amino-9H-purin-9-yl)-18,19-difluoro-3,12-dihydroxy-3,12-dioxido-2,4,7,10,13,16-hexaoxa-3,12-diphosphatricyclo[13.2.1.1^6,9]nonadecan-17-yl)-1,9-dihydro-6H-purin-6-one]
EC50 (WT STING [1]): 0.03 µM | DSF ΔTm WT STING (WT STING [2]): 15.2 °C | DSF ΔTm AQ STING (AQ STING (G230A-R293Q)): 22.9 °C

Nc1nc2c(ncn2[C@@H]2O[C@@H]3COP(=O)(O)O[C@H]4[C@@H](O)[C@H](n5cnc6c(=O)[nH]c(N)nc65)O[C@@H]4COP(=O)(O)O[C@H]3[C@H]2O)c(=O)[nH]1 [3′3′-c-di-GMP, reference compound]
EC50 (WT STING [1]): 5.8 µM | DSF ΔTm WT STING (WT STING [2]): 2.6 °C | DSF ΔTm AQ STING (AQ STING (G230A-R293Q)): 7.7 °C

Nc1ncnc2c1ncn2[C@@H]1O[C@@H]2COP(=O)(O)CO[C@@H]3[C@@H](O)[C@@H](COP(=O)(O)CO[C@@H]1[C@H]2O)O[C@H]3n1cnc2c(N)ncnc21 [Example 7, (1R,7R,9R,10R,16R,18R,19S,20S)-9,18-bis(6-amino-9H-purin-9-yl)-4,13,19,20-tetrahydroxy-2,5,8,11,14,17-hexaoxa-4,13-diphosphatricyclo[14.2.1.1^7,10]icosane 4,13-dioxide]
EC50 (WT STING [1]): > 50 µM | DSF ΔTm WT STING (WT STING [2]): 0.0 °C | DSF ΔTm AQ STING (AQ STING (G230A-R293Q)): 0.0 °C

Nc1ncnc2c1ncn2[C@@H]1O[C@@H]2COP(=O)(O)CO[C@H]3[C@H](O)[C@@H](COP(=O)(O)CO[C@H]1[C@@H]2O)O[C@H]3n1cnc2c(N)ncnc21 [Example 6, (1S,7R,9R,10S,16R,18R,19R,20R)-9,18-bis(6-amino-9H-purin-9-yl)-4,13,19,20-tetrahydroxy-2,5,8,11,14,17-hexaoxa-4,13-diphosphatricyclo[14.2.1.1^7,10]icosane 4,13-dioxide]
EC50 (WT STING [1]): > 50 µM | DSF ΔTm WT STING (WT STING [2]): 0.0 °C | DSF ΔTm AQ STING (AQ STING (G230A-R293Q)): −0.3 °C

Nc1nc2c(ncn2[C@@H]2O[C@@H]3COP(=O)(O)O[C@@H]4[C@H](O)[C@@H](COP(=O)(O)O[C@@H]2[C@@H]3O)O[C@H]4n2cnc3c(N)ncnc32)c(=O)[nH]1 [2′2′-cGAMP, reference compound]
EC50 (WT STING [1]): 0.03 µM | DSF ΔTm WT STING (WT STING [2]): 11.5 °C | DSF ΔTm AQ STING (AQ STING (G230A-R293Q)): 19.4 °C
